Measurements: patent US20110319464A1, “METHODS FOR TREATING BENIGN PROSTATIC HYPERPLASIA” (KISSEI PHARMACEUTICAL CO., LTD., priority 2007, published 2011)

Columns and labels:
symptoms of BPH [1] = assay: Study C: 4 mg or 8 mg Silodosin Once Daily (KMD-3213-US021-99), U.S. Phase 2 Study; assay type: in vivo, human; conditions: Study C
Protocol: The 6-week stable dosing period was preceded by a 4-week placebo lead-in and a 2-week titration period. […] Male patients were selected who were at least 45 years of age with signs and symptoms of BPH (AUASS of 13 and maximum urine flow rate between 4 and 15 mL/sec). In addition, the results for IPSS/AUASS for studies A, B, D and E are illustrated in FIGS. 3 to 6, respectively, and the results for Qmax for studies A, B, D and E are illustrated in FIGS. 7 to 10, respectively.

symptoms of BPH [2] = assay: Study D: 8 mg Silodosin Once Daily (SI04009), U.S. Phase 3 Study; assay type: in vivo, human; conditions: 8 mg once daily
From the text: (§1) In addition, the results for IPSS/AUASS for studies A, B, D and E are illustrated in FIGS. 3 to 6, respectively, and the results for Qmax for studies A, B, D and E are illustrated in FIGS. 7 to 10, respectively.

symptoms of BPH [3] = assay: Study E: 8 mg Silodosin Once Daily (SI04010), U.S. Phase 3 Study; assay type: in vivo, human; conditions: 8 mg once daily
From the text: as §1

[4] = tested on: symptoms associated with BPH; assay: Efficacy Studies on Silodosin, studies A-E compared (once daily vs twice daily); assay type: in vivo, human; conditions: Tables 6 and 7
From the text: as §1

[5] = tested on: LUTS associated with benign prostatic hyperplasia; conditions: 4 mg silodosin twice daily; cited from earlier work

## C[C@H](Cc1cc2c(c(C(N)=O)c1)N(CCCO)CC2)NCCOc1ccccc1OCC(F)(F)F [Silodosin]
Symptoms of BPH [1]; 4 mg once daily, Week 1
  Mean Change From Baseline (CFB) in IPSS/AUASS: −2.4
  Mean Change From Baseline (CFB) in Maximum Flow Rate: 2.7 mL/s
Symptoms of BPH [1]; 4 mg once daily, Week 2
  Mean Change From Baseline (CFB) in IPSS/AUASS: −4.2
  Mean Change From Baseline (CFB) in Maximum Flow Rate: 2.6 mL/s
Symptoms of BPH [1]; 4 mg once daily, Week 5
  Mean Change From Baseline (CFB) in IPSS/AUASS: −5.1
  Mean Change From Baseline (CFB) in Maximum Flow Rate: 2.3 mL/s
Symptoms of BPH [1]; 4 mg once daily, Week 8
  Mean Change From Baseline (CFB) in IPSS/AUASS: −5.7
  Mean Change From Baseline (CFB) in Maximum Flow Rate: 2.9 mL/s
Symptoms of BPH [1]; 8 mg once daily
  Incidence of Adverse Events: Dizziness: 5.6 % of patients
  Incidence of Adverse Events: Orthostatic Hypotension: 3.3 % of patients
  Incidence of Adverse Events: Syncope: 0 % of patients
Symptoms of BPH [1]; 8 mg once daily, 2-6 hrs after 1st dose
  Mean Change From Baseline (CFB) in Maximum Flow Rate: 2.0 mL/s
Symptoms of BPH [1]; 8 mg once daily, Week 0
  IPSS/AUASS baseline value: 20.8
  Maximum Flow Rate baseline value: 9.6 mL/s
Symptoms of BPH [1]; 8 mg once daily, Week 1
  Mean Change From Baseline (CFB) in IPSS/AUASS: −2.7
  Mean Change From Baseline (CFB) in Maximum Flow Rate: 2.9 mL/s
Symptoms of BPH [1]; 8 mg once daily, Week 2
  Mean Change From Baseline (CFB) in IPSS/AUASS: −4.3
  Mean Change From Baseline (CFB) in Maximum Flow Rate: 2.9 mL/s
Symptoms of BPH [1]; 8 mg once daily, Week 5
  Mean Change From Baseline (CFB) in IPSS/AUASS: −4.9
  Mean Change From Baseline (CFB) in Maximum Flow Rate: 3.2 mL/s
Symptoms of BPH [1]; 8 mg once daily, Week 8
  Mean Change From Baseline (CFB) in IPSS/AUASS: −6.8
  Mean Change From Baseline (CFB) in Maximum Flow Rate: 3.4 mL/s
Symptoms of BPH [2]
  Incidence of Adverse Events: Dizziness: 2.6 % of patients
  Incidence of Adverse Events: Orthostatic Hypotension: 2.6 % of patients
  Incidence of Adverse Events: Syncope: 0 % of patients
Symptoms of BPH [2]; 2-6 hrs after 1st dose
  Mean Change From Baseline (CFB) in Maximum Flow Rate: 2.7 mL/s
Symptoms of BPH [2]; Week 0
  IPSS/AUASS baseline value: 21.5
  Maximum Flow Rate baseline value: 9.0 mL/s
Symptoms of BPH [2]; Week 0.5
  Mean Change From Baseline (CFB) in IPSS/AUASS: −3.9
Symptoms of BPH [2]; Week 1
  Mean Change From Baseline (CFB) in IPSS/AUASS: −4.5
  Mean Change From Baseline (CFB) in Maximum Flow Rate: 2.2 mL/s
Symptoms of BPH [2]; Week 2
  Mean Change From Baseline (CFB) in IPSS/AUASS: −5.3
  Mean Change From Baseline (CFB) in Maximum Flow Rate: 2.6 mL/s
Symptoms of BPH [2]; Week 4
  Mean Change From Baseline (CFB) in IPSS/AUASS: −5.9
  Mean Change From Baseline (CFB) in Maximum Flow Rate: 2.4 mL/s
Symptoms of BPH [2]; Week 12
  Mean Change From Baseline (CFB) in IPSS/AUASS: −6.7
  Mean Change From Baseline (CFB) in Maximum Flow Rate: 2.1 mL/s
Symptoms of BPH [3]
  Incidence of Adverse Events: Dizziness: 3.9 % of patients
  Incidence of Adverse Events: Orthostatic Hypotension: 2.6 % of patients
Symptoms of BPH [3]; 2-6 hrs after 1st dose
  Mean Change From Baseline (CFB) in Maximum Flow Rate: 2.9 mL/s
Symptoms of BPH [3]; Week 0
  IPSS/AUASS baseline value: 21.2
  Maximum Flow Rate baseline value: 8.4 mL/s
Symptoms of BPH [3]; Week 0.5
  Mean Change From Baseline (CFB) in IPSS/AUASS: −4.4
Symptoms of BPH [3]; Week 1
  Mean Change From Baseline (CFB) in IPSS/AUASS: −5.0
  Mean Change From Baseline (CFB) in Maximum Flow Rate: 2.9 mL/s
Symptoms of BPH [3]; Week 2
  Mean Change From Baseline (CFB) in IPSS/AUASS: −5.6
  Mean Change From Baseline (CFB) in Maximum Flow Rate: 2.9 mL/s
Symptoms of BPH [3]; Week 4
  Mean Change From Baseline (CFB) in IPSS/AUASS: −6.2
  Mean Change From Baseline (CFB) in Maximum Flow Rate: 2.7 mL/s
Symptoms of BPH [3]; Week 12
  Mean Change From Baseline (CFB) in IPSS/AUASS: −6.6
  Mean Change From Baseline (CFB) in Maximum Flow Rate: 3.1 mL/s
Symptoms of BPH [3]; one subject, using excluded medication Prazosin
  Incidence of Adverse Events: Syncope: 0.4^1 % of patients
[4]
  mean changes in IPSS/AUASS and Qmax, 8 mg once daily compared with 4 mg twice daily: comparable
[5]
  efficacy in treating LUTS associated with BPH compared with 0.2 mg tamsulosin once daily: comparable efficacy
